Measurements taken from PubChem BioAssay (NCI).
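96-well plates; 48 h exposure; 5 concentrations. Endpoints by linear interpolation between flanking doses. Not reached: highest tested concentration assigned. GI50 = concentration required for 50% inhibition of growth. The concentration for full growth arrest is given as TGI.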

What follows are compounds tested on BT-549 breast (assay: DTP human tumour cell line panel, 48 h).

Question: Which results are given for `O=S(=O)([O-])c1ccc2c(c1)-c1nc-2nc2[n-]c(nc3nc(nc4[n-]c(n1)c1ccc(S(=O)(=O)[O-])cc41)-c1cc(S(=O)(=O)[O-])ccc1-3)c1ccc(S(=O)(=O)[O-])cc21.[Cu+2].[Na+]`?
Answer: GI50: 47.4 µM; TGI: > 100 µM

Question: How did the GI50 turn out when `Cc1ccc(C(SCC(N)C(=O)O)(c2ccccc2)c2ccc(C)cc2)cc1` (stereo unspecified) was run?
Answer: 0.247 µM

Question: And the TGI?
Answer: 21.9 µM

Question: For `COc1cc(Nc2cn[nH]c2-c2ccc(Cl)cc2)cc(OC)c1OC`, which GI50 is on record?
Answer: 3.37 µM

Question: And the TGI?
Answer: 19.2 µM

Question: Which GI50 does the source give for `CNCCNc1c2c(c(NCCNC)c3c(CN(C)C)c[nH]c13)C(=O)c1ccccc1C2=O` here?
Answer: 6.04 µM

Question: And the TGI?
Answer: 14.4 µM

Question: With `CC1OC2CC(=O)OC2C2=C1C(=O)c1c(O)cccc1C2=O` (stereo unspecified) as the compound, how does the GI50 read?
Answer: 0.177 µM

Question: What about the TGI of the same compound?
Answer: 0.368 µM

Question: For `O=C1NC(=Nc2ccccc2)S/C1=C\c1ccc2ncccc2c1`, which GI50 is on record?
Answer: > 25 µM

Question: And the TGI?
Answer: > 25 µM

Question: With `C/C1=C\CC[C@@]2(C)O[C@@H]2[C@H]2OC(=O)[C@@H](CN(C)C)[C@@H]2CC1` as the compound, how does the GI50 read?
Answer: 4.8 µM

Question: What about the TGI of the same compound?
Answer: 26.9 µM

Question: Which GI50 does the source give for `Oc1ccc(Cl)cc1Cc1cc(Cl)cc(Cl)c1O` here?
Answer: 3.32 µM

Question: And the TGI?
Answer: 11.9 µM

Question: `C=C(C=O)C1CCC2(C(=O)O)CCC3(C)C(CCC4C5(C)CCC(O)C(C)(C)C5CCC43C)C12` (stereo unspecified) was tested. Which GI50 did it give?
Answer: 1.68 µM

Question: What about the TGI of the same compound?
Answer: 6.67 µM

Question: How did the GI50 turn out when `COc1ccc(N2C(=O)C(c3ccccc3)(c3ccccc3)C23C(=O)N(C)c2ccccc23)cc1` (stereo unspecified) was run?
Answer: > 100 µM

Question: What about the TGI of the same compound?
Answer: > 100 µM

Question: Which GI50 does the source give for `CC(C)=C[C@@H]1C[C@H](C)[C@H]2CC[C@H](C)C3=C2[C@](O)(OC3=O)[C@]1(C)O` here?
Answer: > 100 µM

Question: And the TGI?
Answer: > 100 µM

Question: With `CCC[CH2][Sn]([CH2]CCC)([CH2]CCC)[O]C(=O)CC` as the compound, how does the GI50 read?
Answer: 0.15 µM

Question: What about the TGI of the same compound?
Answer: 0.344 µM

Question: Which GI50 does the source give for `C=C(C)[C@@]12OC3(/C=C/C=C/CCCCC)O[C@@H]1[C@@H]1[C@@H]4O[C@]4(CO)[C@@H](O)[C@]4(O)C(=O)C(C)=C[C@H]4[C@@]1(O3)[C@H](C)[C@H]2OC(=O)c1ccccc1` here?
Answer: 1.66 µM

Question: What about the TGI of the same compound?
Answer: 4.38 µM

Question: Which results are given for `C/C(=C\CCc1ccoc1)CC/C=C(\C)CCCC1=CC(=O)OC1`?
Answer: GI50: 6.24 µM; TGI: 25.9 µM

Question: How did the TGI turn out when `O=c1c2ccccc2[se]n1-c1cccnc1` was run?
Answer: 84.6 µM

The compounds below were run on DLD-1 colon (assay: DTP human tumour cell line panel, 48 h).

Question: How did the TGI turn out when `O=[n+]1c2c(n([O-])c3ccccc31)CCCCCCCCCC2` was run?
Answer: > 100 µM

Question: How did the TGI turn out when `CNC(=S)N(C)C(=S)Nn1c(=O)c(C)nn(C)c1=S` was run?
Answer: > 100 µM

Question: `O=C1CCCC/C(=C/c2ccccc2)N1` was tested. Which TGI did it give?
Answer: > 100 µM

Question: Which TGI does the source give for `O=C1CN=C(C[N+](=O)[O-])c2ccccc21` here?
Answer: > 100 µM

Question: How did the TGI turn out when `CCCCN(CCCC)CC(C(=O)Nc1ccc([N+](=O)[O-])cc1[N+](=O)[O-])/C(C)=N\NC(=S)NN` (stereo unspecified) was run?
Answer: > 100 µM

Question: Which TGI does the source give for `S=C(N/N=C/c1ccco1)NC12CC3CC(CC(C3)C1)C2` here?
Answer: > 100 µM

Question: For `CS(=O)(=O)N/N=C/CN1C(=O)c2ccccc2C1=O`, which TGI is on record?
Answer: > 100 µM

Question: How did the GI50 turn out when `CC(=O)O.CC(=O)O.CC(=O)O.CC(=O)O.CC(=O)O.CC(=O)O.O.[Ti].[Ti]` was run?
Answer: > 100 µM

Question: And the TGI?
Answer: > 100 µM

Question: How did the TGI turn out when `COC(=O)C1=C(c2ccc3c(c2)OCO3)O[C@H](c2cc(OC)c(OC)c(OC)c2)[C@H]1COC(C)=O` was run?
Answer: > 100 µM

Question: With `COc1ccc(NC(=O)CCc2cc(-c3ccc(O)c(OC)c3)nc(NC#N)n2)cc1` as the compound, how does the TGI read?
Answer: > 100 µM

Question: With `COC(=O)c1cc2c3ccccc3n(C(C)=O)c2cn1` as the compound, how does the TGI read?
Answer: > 100 µM

Question: How did the TGI turn out when `O=C1c2ccccc2C2(Br)C(=O)c3ccccc3C12` (stereo unspecified) was run?
Answer: > 100 µM

Question: Which results are given for `O=S(=O)([O-])c1ccc2c(c1)-c1nc-2nc2[n-]c(nc3nc(nc4[n-]c(n1)c1ccc(S(=O)(=O)[O-])cc41)-c1cc(S(=O)(=O)[O-])ccc1-3)c1ccc(S(=O)(=O)[O-])cc21.[Cu+2].[Na+]`?
Answer: GI50: 7.65 µM; TGI: > 100 µM

Question: `CCCCOC(=O)C1C(c2ccc(Cl)cc2)NC(c2ccc(Cl)cc2)C(C(=O)OCCCC)S1(=O)=O` (stereo unspecified) was tested. Which TGI did it give?
Answer: > 100 µM

Question: How did the TGI turn out when `Cc1cc(Br)cc(C)c1NC(=O)C(=O)C(C(=O)c1ccc2ccccc2c1)C1OC(=O)c2ccccc21` (stereo unspecified) was run?
Answer: 34.2 µM
